According to patent US7259153B2, “Drug formulation and delivery using crystalline methylated cyclodextrins” (Supernus Pharmaceuticals, priority 2003, dated 2007):
In brackets after ≈: the same amount, converted by molar mass. Like-named read-outs stand apart in the source and are kept apart here. Blank lines part the entries; values can stand above or below the compound they belong to.

Key:
[1] = water; cited from earlier work
[2] = Equilibrium solubility of drug substance in media with solubilizer (excess drug, rotated 48 hours at room temperature, filtered, HPLC); format: physicochemical; details: for solubility enhancement ratio: vs vehicle alone; for solubility at 48 h: thermodynamic from solid
Protocol: An excess of drug substance was added to 20 ml glass liquid scintillation vials (Kimble Glass Inc., Vineland, N.J.) containing 10 ml of the media with a specific amount of solubilizer. […] The samples were filtered through a 0.45 μm filter (Acrodisc CR PTFE membrane filter, Gelman Sciences, Ann Arbor, Mich.). After discarding the first mL of the filtrates to eliminate any membrane adsorptive effect, the filtrates were collected for high-performance liquid chromatography (HPLC) analysis for drug concentration.

[3] = Water solubility of the cyclodextrin itself; format: physicochemical; details: room temperature
[4] = Stability of crystalline methylated β-cyclodextrin against heat and humidity; format: physicochemical
[5] = set by the WHO; cited from earlier work
[6] = 2% (w/v) Cryst. Methylated β-CD, aqueous
[7] = 2% (w/v) HP-β-cyclodextrin, aqueous
[8] = 5% (w/v) Cryst. Methylated β-CD, aqueous
[9] = 5% (w/v) HP-β-cyclodextrin, aqueous
[10] = 10% (w/v) Cryst. Methylated β-CD, aqueous
[11] = 10% (w/v) HP-β-cyclodextrin, aqueous

Compound: OC[C@H]1O[C@@H]2O[C@H]3[C@H](O)[C@@H](O)[C@@H](O[C@H]4[C@H](O)[C@@H](O)[C@@H](O[C@H]5[C@H](O)[C@@H](O)[C@@H](O[C@H]6[C@H](O)[C@@H](O)[C@@H](O[C@H]7[C@H](O)[C@@H](O)[C@@H](O[C@H]8[C@H](O)[C@@H](O)[C@@H](O[C@H]1[C@H](O)[C@H]2O)O[C@@H]8CO)O[C@@H]7CO)O[C@@H]6CO)O[C@@H]5CO)O[C@@H]4CO)O[C@@H]3CO [β-cyclodextrin]
aqueous solubility [1]: 1.8 % w/v

Compound: CC(O)CO (centres unmarked) [propylene glycol]
acceptable daily intake [5]: up to 25 mg/kg body weight

More lines, now with the values ahead:

solubility enhancement ratio ([2]; 1% (w/v) β-Cyclodextrin, aqueous): 5.9
solubility at 48 h ([2]; 1% (w/v) β-cyclodextrin in water, aqueous with cosolvent or surfactant or cyclodextrin, 1% (w/v) β-Cyclodextrin, aqueous, read-out: Carbamazepine Solubility): 669 µg/mL (≈ 2.83 mM)
solubility at 48 h ([2]; 2% (w/v) Cavasol W7M in water, aqueous with cosolvent or surfactant or cyclodextrin, 2% (w/v) Cavasol W7M, aqueous, read-out: Carbamazepine Solubility): 1070 µg/mL (≈ 4.52 mM)
solubility enhancement ratio ([2]; 2% (w/v) Cavasol W7M, aqueous): 9.5
solubility enhancement ratio [2, 6]: 13.7
solubility at 48 h ([2]; 2% (w/v) HP-β-cyclodextrin in water, aqueous with cosolvent or surfactant or cyclodextrin, 2% (w/v) HP-β-cyclodextrin, aqueous, read-out: Carbamazepine Solubility): 1240 µg/mL (≈ 5.26 mM)
solubility enhancement ratio [2, 7]: 11.0
solubility at 48 h ([2]; 2% (w/v) crystalline methylated β-cyclodextrin in water, aqueous with cosolvent or surfactant or cyclodextrin, 2% (w/v) Cryst. Methylated β-CD, aqueous, read-out: Carbamazepine Solubility): 1540 µg/mL (≈ 6.53 mM)
solubility enhancement ratio ([2]; 2% (w/v) β-Cyclodextrin, aqueous): 10.5
solubility at 48 h ([2]; 2% (w/v) β-cyclodextrin in water, aqueous with cosolvent or surfactant or cyclodextrin, 2% (w/v) β-Cyclodextrin, aqueous, read-out: Carbamazepine Solubility): 1190 µg/mL (≈ 5.02 mM)
solubility at 48 h ([2]; 5% (w/v) Cavasol W7M in water, aqueous with cosolvent or surfactant or cyclodextrin, 5% (w/v) Cavasol W7M, aqueous, read-out: Carbamazepine Solubility): 2580 µg/mL (≈ 10.9 mM)
solubility enhancement ratio ([2]; 5% (w/v) Cavasol W7M, aqueous): 22.8
solubility enhancement ratio [2, 8]: 31.8
solubility at 48 h ([2]; 5% (w/v) HP-β-cyclodextrin in water, aqueous with cosolvent or surfactant or cyclodextrin, 5% (w/v) HP-β-cyclodextrin, aqueous, read-out: Carbamazepine Solubility): 2880 µg/mL (≈ 12.2 mM)
solubility enhancement ratio [2, 9]: 25.4
solubility at 48 h ([2]; 5% (w/v) crystalline methylated β-cyclodextrin in water, aqueous with cosolvent or surfactant or cyclodextrin, 5% (w/v) Cryst. Methylated β-CD, aqueous, read-out: Carbamazepine Solubility): 3590 µg/mL (≈ 15.2 mM)
solubility at 48 h ([2]; 7.5% (w/v) Cavasol W7M in water, aqueous with cosolvent or surfactant or cyclodextrin, 7.5% (w/v) Cavasol W7M, aqueous, read-out: Carbamazepine Solubility): 3760 µg/mL (≈ 15.9 mM)
solubility enhancement ratio ([2]; 7.5% (w/v) Cavasol W7M, aqueous): 33.3
solubility enhancement ratio ([2]; 7.5% (w/v) Cryst. Methylated β-CD, aqueous): 47.5
solubility at 48 h ([2]; 7.5% (w/v) HP-β-cyclodextrin in water, aqueous with cosolvent or surfactant or cyclodextrin, 7.5% (w/v) HP-β-cyclodextrin, aqueous, read-out: Carbamazepine Solubility): 4870 µg/mL (≈ 20.6 mM)
solubility enhancement ratio ([2]; 7.5% (w/v) HP-β-cyclodextrin, aqueous): 43.1
solubility at 48 h ([2]; 7.5% (w/v) crystalline methylated β-cyclodextrin in water, aqueous with cosolvent or surfactant or cyclodextrin, 7.5% (w/v) Cryst. Methylated β-CD, aqueous, read-out: Carbamazepine Solubility): 5370 µg/mL (≈ 22.7 mM)
solubility at 48 h ([2]; 10% (w/v) Cavasol W7M in water, aqueous with cosolvent or surfactant or cyclodextrin, 10% (w/v) Cavasol W7M, aqueous, read-out: Carbamazepine Solubility): 5250 µg/mL (≈ 22.2 mM)
solubility enhancement ratio ([2]; 10% (w/v) Cavasol W7M, aqueous): 46.4
solubility enhancement ratio [2, 10]: 61.6
solubility at 48 h ([2]; 10% (w/v) HP-β-cyclodextrin in water, aqueous with cosolvent or surfactant or cyclodextrin, 10% (w/v) HP-β-cyclodextrin, aqueous, read-out: Carbamazepine Solubility): 6020 µg/mL (≈ 25.5 mM)
solubility enhancement ratio [2, 11]: 53.3
solubility at 48 h ([2]; 10% (w/v) crystalline methylated β-cyclodextrin in water, aqueous with cosolvent or surfactant or cyclodextrin, 10% (w/v) Cryst. Methylated β-CD, aqueous, read-out: Carbamazepine Solubility): 6960 µg/mL (≈ 29.5 mM)
solubility at 48 h ([2]; 20% (w/v) Cavasol W7M in water, aqueous with cosolvent or surfactant or cyclodextrin, 20% (w/v) Cavasol W7M, aqueous, read-out: Carbamazepine Solubility): 10900 µg/mL (≈ 46.2 mM)
solubility enhancement ratio ([2]; 20% (w/v) Cavasol W7M, aqueous): 96.5
solubility enhancement ratio ([2]; 20% (w/v) Cryst. Methylated β-CD, aqueous): 132.4
solubility at 48 h ([2]; 20% (w/v) HP-β-cyclodextrin in water, aqueous with cosolvent or surfactant or cyclodextrin, 20% (w/v) HP-β-cyclodextrin, aqueous, read-out: Carbamazepine Solubility): 10700 µg/mL (≈ 45.3 mM)
solubility enhancement ratio ([2]; 20% (w/v) HP-β-cyclodextrin, aqueous): 94.8
solubility at 48 h ([2]; 20% (w/v) crystalline methylated β-cyclodextrin in water, aqueous with cosolvent or surfactant or cyclodextrin, 20% (w/v) Cryst. Methylated β-CD, aqueous (heating to dissolve CD), read-out: Carbamazepine Solubility): 15000 µg/mL (≈ 63.3 mM)
solubility at 48 h ([2]; PEG 400, organic solvent or mixture, vehicle: PEG 400, read-out: Carbamezepine Solubility): 77900 µg/mL (≈ 330 mM)
solubility at 48 h ([2]; Transcutol, organic solvent or mixture, vehicle: Transcutol, read-out: Carbamezepine Solubility): 78100 µg/mL (≈ 331 mM)
carbamazepine solubility in propylene glycol relative to aqueous solubility ([2]; propylene glycol vs water): about 310 fold
solubility at 48 h ([2]; propylene glycol, organic solvent or mixture, vehicle: Propylene Glycol, read-out: Carbamezepine Solubility): 35300 µg/mL (≈ 150 mM)
Carbamazepine Solubility ([2]; water, 0% (w/v) cyclodextrin): 113 µg/mL
Compound: NC(=O)N1c2ccccc2C=Cc2ccccc21 [Carbamazepine]

water solubility [3]: around 15%
stability against heat and humidity [4]: stable against heat and humidity
Compound: crystalline methylated β-cyclodextrin

solubility at 48 h ([2]; 1% (w/v) Cavasol W7M, aqueous, aqueous with cosolvent or surfactant or cyclodextrin, 1% (w/v) Cavasol W7M, aqueous, read-out: Oxcarbazepine Solubility): 150 µg/mL (≈ 0.595 mM)
solubility enhancement ratio ([2]; 1% (w/v) Cavasol W7M, aqueous): 2.1
solubility at 48 h ([2]; 1% (w/v) Cryst. Methylated β-CD, aqueous, aqueous with cosolvent or surfactant or cyclodextrin, 1% (w/v) Cryst. Methylated β-CD, aqueous, read-out: Oxcarbazepine Solubility): 230 µg/mL (≈ 0.912 mM)
solubility enhancement ratio ([2]; 1% (w/v) Cryst. Methylated β-CD, aqueous): 3.3
solubility at 48 h ([2]; 1% (w/v) HP-β-cyclodextrin, aqueous, aqueous with cosolvent or surfactant or cyclodextrin, 1% (w/v) HP-β-cyclodextrin, aqueous, read-out: Oxcarbazepine Solubility): 130 µg/mL (≈ 0.515 mM)
solubility enhancement ratio ([2]; 1% (w/v) HP-β-cyclodextrin, aqueous): 1.9
solubility at 48 h ([2]; 1% (w/v) Tween 80, aqueous, aqueous with cosolvent or surfactant or cyclodextrin, 1% (w/v) Tween 80, aqueous, read-out: Oxcarbazepine Solubility): 120 µg/mL (≈ 0.476 mM)
solubility enhancement ratio ([2]; 1% (w/v) Tween 80, aqueous): 1.7
solubility at 48 h ([2]; 2% (w/v) Cavasol W7M, aqueous, aqueous with cosolvent or surfactant or cyclodextrin, 2% (w/v) Cavasol W7M, aqueous, read-out: Oxcarbazepine Solubility): 240 µg/mL (≈ 0.951 mM)
solubility enhancement ratio ([2]; 2% (w/v) Cavasol W7M, aqueous): 3.4
solubility at 48 h ([2]; 2% (w/v) Cryst. Methylated β-CD, aqueous, aqueous with cosolvent or surfactant or cyclodextrin, 2% (w/v) Cryst. Methylated β-CD, aqueous, read-out: Oxcarbazepine Solubility): 310 µg/mL (≈ 1.23 mM)
solubility enhancement ratio [2, 6]: 4.4
solubility at 48 h ([2]; 2% (w/v) HP-β-cyclodextrin, aqueous, aqueous with cosolvent or surfactant or cyclodextrin, 2% (w/v) HP-β-cyclodextrin, aqueous, read-out: Oxcarbazepine Solubility): 190 µg/mL (≈ 0.753 mM)
solubility enhancement ratio [2, 7]: 2.7
solubility at 48 h ([2]; 2% (w/v) Tween 80, aqueous, aqueous with cosolvent or surfactant or cyclodextrin, 2% (w/v) Tween 80, aqueous, read-out: Oxcarbazepine Solubility): 170 µg/mL (≈ 0.674 mM)
solubility enhancement ratio ([2]; 2% (w/v) Tween 80, aqueous): 2.4
solubility enhancement ratio ([2]; 5% (w/v) Cavasol W7M, aqueous): 7.0
solubility enhancement ratio [2, 8]: 11.7
solubility enhancement ratio [2, 9]: 4.9
solubility at 48 h ([2]; 5% (w/v) Tween 80, aqueous, aqueous with cosolvent or surfactant or cyclodextrin, 5% (w/v) Tween 80, aqueous, read-out: Oxcarbazepine Solubility): 290 µg/mL (≈ 1.15 mM)
solubility enhancement ratio ([2]; 5% (w/v) Tween 80, aqueous): 4.1
solubility enhancement ratio ([2]; 10% (w/v) Cavasol W7M, aqueous): 9.6
solubility enhancement ratio [2, 10]: 21.3
solubility enhancement ratio [2, 11]: 9.6
solubility enhancement ratio ([2]; 10% (w/v) Tween 80, aqueous): 7.1
solubility at 48 h ([2]; aqueous media with solubilizer, aqueous with cosolvent or surfactant or cyclodextrin, 5% (w/v) Cavasol W7M, aqueous, read-out: Oxcarbazepine Solubility): 490 µg/mL (≈ 1.94 mM)
solubility at 48 h ([2]; aqueous media with solubilizer, aqueous with cosolvent or surfactant or cyclodextrin, 5% (w/v) Cryst. Methylated β-CD, aqueous, read-out: Oxcarbazepine Solubility): 820 µg/mL (≈ 3.25 mM)
solubility at 48 h ([2]; aqueous media with solubilizer, aqueous with cosolvent or surfactant or cyclodextrin, 5% (w/v) HP-β-cyclodextrin, aqueous, read-out: Oxcarbazepine Solubility): 340 µg/mL (≈ 1.35 mM)
solubility at 48 h ([2]; aqueous media with solubilizer, aqueous with cosolvent or surfactant or cyclodextrin, 10% (w/v) Cavasol W7M, aqueous, read-out: Oxcarbazepine Solubility): 670 µg/mL (≈ 2.66 mM)
solubility at 48 h ([2]; aqueous media with solubilizer, aqueous with cosolvent or surfactant or cyclodextrin, 10% (w/v) Cryst. Methylated β-CD, aqueous, read-out: Oxcarbazepine Solubility): 1490 µg/mL (≈ 5.91 mM)
solubility at 48 h ([2]; aqueous media with solubilizer, aqueous with cosolvent or surfactant or cyclodextrin, 10% (w/v) HP-β-cyclodextrin, aqueous, read-out: Oxcarbazepine Solubility): 670 µg/mL (≈ 2.66 mM)
solubility at 48 h ([2]; aqueous media with solubilizer, aqueous with cosolvent or surfactant or cyclodextrin, 10% (w/v) Tween 80, aqueous, read-out: Oxcarbazepine Solubility): 500 µg/mL (≈ 1.98 mM)
Oxcarbazepine Solubility ([2]; water, 0% (w/v) solubilizer): 70 µg/mL
solubility at 48 h ([2]; water, water, 0% (w/v) solubilizer, read-out: Oxcarbazepine Solubility): 70 µg/mL (≈ 0.277 mM)
Compound: NC(=O)N1c2ccccc2CC(=O)c2ccccc21 [Oxcarbazepine]
